The values that follow come from patent publication US8563027B2, “Drug delivery through hydrogel plugs” (Incept, LLC, priority 2009, dated 2013).

Converted amounts (≈) assume the structure as drawn. Read-outs that look alike come from different tables or passages of the source.

For data set [1] the following is noted: cited from earlier work.
Data set [2] in a line: In vitro release of steroids entrapped in hydrogel compared to free drug in PBS. It counts as physicochemical. The settings on record: 9% 4a20KSG hydrogel, FIG. 20. The protocol: A 9% 4a20KSG hydrogel was prepared incorporating three different steroids (flunisolide, budesonide, and triamcinolone acetonide).

As to `Cc1ccc(-c2cc(C(F)(F)F)nn2-c2ccc(S(N)(=O)=O)cc2)cc1` [Celecoxib], in data set [1], the Solubility is 0.005 mg/mL (≈ 13.1 µM).
Turning to `O=C(O)c1cc(-c2ccc(F)cc2F)ccc1O` [Diflunisal], in data set [1] (pH 7), the Solubility is recorded as 3.43 mg/ml @ pH 7.
Consider `CCc1cccc2c3c([nH]c12)C(CC)(CC(=O)O)OCC3` (stereo not shown) [Etodolac], for which the Solubility entry in data set [1] (in water) was “Insoluble in water”.
As to `CC(C(=O)[O][Ca][O]C(=O)C(C)c1cccc(Oc2ccccc2)c1)c1cccc(Oc2ccccc2)c1` (stereo not shown) [Fenoprofen Calcium], in data set [1] (in water), the Solubility result is given as “Slightly soluble in water”.
With `CC(C(=O)O)c1ccc(-c2ccccc2)c(F)c1` (stereo not shown) [Flurbiprofen], the Solubility in data set [1] is recorded as 0.9 mg/mL (≈ 3680 µM).
Turning to `CC(C)Cc1ccc(C(C)C(=O)O)cc1` (stereo not shown) [Ibuprofen], in data set [1] (pH 7), the Solubility is reported as 10 mg/ml @ pH 7.
For `COc1ccc2c(c1)c(CC(=O)O)c(C)n2C(=O)c1ccc(Cl)cc1` [Indomethacin], the Solubility is 0.54 mg/mL (≈ 1510 µM) in data set [1] (pH 7, Form I) and 0.80 mg/mL (≈ 2240 µM) in data set [1] (pH 7, Form II).
Regarding `O=C(c1ccccc1)c1ccc2n1CCC2C(=O)O` (stereo not shown) [Ketorolac], the Solubility in data set [1] (in IPB) is 10.5 mg/mL (≈ 41100 µM).
Turning to `CC(C)OC(=O)CCC/C=C\C[C@@H]1[C@@H](CC[C@@H](O)CCc2ccccc2)[C@H](O)C[C@@H]1O` [Latanoprost], the “Solubility in aqueous solutions” value in data set [1] is recorded as “relatively low solubility”.
In the case of `Cc1ccc(Cl)c(Nc2ccccc2C(=O)[O-])c1Cl.[Na+]` [Meclofenamate sodium], the Solubility in data set [1] (pH 7.2) and in data set [1] (pH 9.0) was <50 μg/mL @ pH 7.2 50 mg/mL @ pH 9.0 in each case.
`Cc1cccc(Nc2ccccc2C(=O)[O-])c1C.[Na+]` [Mefanamic Acid]: the Solubility in data set [1] (pH 7.1) was 40 μg/ml @ pH 7.1.
For `COc1c(N2C[C@@H]3CCCN[C@@H]3C2)c(F)cc2c(=O)c(C(=O)O)cn(C3CC3)c12` [Moxifloxacin], the “Solubility in aqueous solutions” value in data set [1] was “readily soluble”.
As to `NC(=O)Cc1cccc(C(=O)c2ccccc2)c1N` [Nepafenac], the Solubility in data set [1] is recorded as <1 mg/ml (The drug is available as 0.1% suspension).
As for `CC1(C)O[C@@H]2C[C@H]3[C@@H]4C[C@H](F)C5=CC(=O)C=C[C@]5(C)[C@H]4[C@@H](O)C[C@]3(C)[C@]2(C(=O)CO)O1` [flunisolide], the “Release profile in hydrogel compared to free drug in PBS” value in data set [2] is recorded as “slower more sustained drug release profile”.
